Literature values in patent US20230382903A1, “SMALL MOLECULE MODULATORS OF GP130 SIGNALING PATHWAYS, TOPICAL FORMULATIONS AND METHOD OF USE THEREOF” (CarthroniX, Inc., priority 2020, published 2023).

Assays:
gp130 = biological target: T1, gp130 (Homo sapiens, UniProt P40189)
T1 sequence (P40189 23-918): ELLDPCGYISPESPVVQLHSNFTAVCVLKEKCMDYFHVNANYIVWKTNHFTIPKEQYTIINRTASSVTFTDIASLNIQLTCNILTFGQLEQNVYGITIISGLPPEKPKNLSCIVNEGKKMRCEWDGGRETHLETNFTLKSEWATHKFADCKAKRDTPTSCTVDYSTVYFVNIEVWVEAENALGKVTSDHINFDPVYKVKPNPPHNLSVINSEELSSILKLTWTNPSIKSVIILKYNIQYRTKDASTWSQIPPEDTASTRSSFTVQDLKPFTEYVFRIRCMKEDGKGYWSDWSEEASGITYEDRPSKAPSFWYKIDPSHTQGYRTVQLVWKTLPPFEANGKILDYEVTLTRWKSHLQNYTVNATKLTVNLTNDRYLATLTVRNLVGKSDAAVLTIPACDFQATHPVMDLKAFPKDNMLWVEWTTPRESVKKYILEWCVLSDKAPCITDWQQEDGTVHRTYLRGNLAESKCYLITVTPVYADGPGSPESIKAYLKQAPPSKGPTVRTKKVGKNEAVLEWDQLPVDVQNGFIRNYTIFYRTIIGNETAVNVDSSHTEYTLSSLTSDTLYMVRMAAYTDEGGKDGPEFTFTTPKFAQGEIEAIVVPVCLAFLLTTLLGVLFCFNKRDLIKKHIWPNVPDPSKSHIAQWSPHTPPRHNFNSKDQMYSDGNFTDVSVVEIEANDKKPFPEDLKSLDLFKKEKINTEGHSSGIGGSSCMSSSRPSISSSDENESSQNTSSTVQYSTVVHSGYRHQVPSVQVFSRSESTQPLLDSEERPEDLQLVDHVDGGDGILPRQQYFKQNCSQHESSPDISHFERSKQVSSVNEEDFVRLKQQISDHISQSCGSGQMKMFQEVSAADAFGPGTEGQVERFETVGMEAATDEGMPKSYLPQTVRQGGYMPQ

cartilage degeneration = conditions: rat model of OA

In the case of Brc1ccc(Nc2nc(-c3ccccc3)cs2)cc1 [RCGD 423], the “interaction with gp130” value (gp130; in vitro) is given as “interacts with the extracellular region of gp130”, the “formation of gp130 homodimers” value (gp130; ligand-independent) is given as “promotes the formation of active, ligand-independent gp130 homodimers” and the “prevention of cartilage degeneration” value (cartilage degeneration) is given as “remarkable ability to prevent cartilage degeneration”.
